Measured values reported in patent US20110178092A1, “HIV-1 Protease Inhibitors” (priority 2005, published 2011).

These compounds were tested against T1, wild type HIV-1 protease (Q7K) (Human immunodeficiency virus type 1 group M subtype B, UniProt P04585, Q495K) (assay: FRET HIV-1 protease inhibition assay, wild type). Details: not given.
T1 construct: Wide type HIV-1 protease (Q7K)
Format: biochemical
Experimental: Biological Evaluation of Selected Compounds of the Invention. HIV protease inhibitor activities were determined by fluorescence resonance energy transfer (FRET) method. […] Inhibitor binding dissociation constant (Ki value) was obtained by nonlinear regression fitting to the plot of initial velocity as a function of inhibitor concentration based on Morrison equation.
The energy transfer donor (EDANS) and acceptor (DABCYL) were labeled at its two ends respectively to perform FRET. Fluorescence measurements were carried out on PTI fluorescence spectrophotometer (Photon Technology International) at 30° C. Excitation and emission wavelengths were set at 340 nm and 490 nm, respectively. Each reaction was recorded for about 10 min. Wide type HIV-1 protease (Q7K) and its MDR mutants M1 (L10I, G48V, I54V, L63P, V82A), M2 (D30N, L63P, N88D), and M3 (L10I, L63P, A71V, G73S, I84V, L90M) were desalted through PD-10 columns (Amersham Biosciences). Sodium Acetate (20 mM, pH 5) was used as elution buffer. Apparent protease concentrations were around 50 nM estimated by UV spectrophotometer (Shimadzu) at 280 nm. All inhibitors were dissolved in DMSO and diluted to appropriate concentrations. Protease (2 μL) and inhibitor (2 μL) or DMSO were mixed and incubated for 20-30 min at room temperature before initialing substrate cleavage reaction. Throughout this work, 150 μL of 1 μM substrate was used. Substrate buffer is composite of 0.1 M sodium acetate, 1 M sodium chloride, 1 mM ethylenediaminetetraacetic acid (EDTA), 1 mM dithiothreitol (DTT), 2% dimethylsulfoxide (DMSO) and 1 mg/mL bovine serum albumin (BSA) with an adjusted pH 4.7. Inhibitor binding dissociation constant (Ki) was obtained by nonlinear regression fitting (GraFit 5, Erithacus software) to the plot of initial velocity as a function of inhibitor concentrations based on Morrison equation.

Row | SMILES | Ki [nM]
1 | COc1ccc(S(=O)(=O)N(CC(C)C)C[C@@H](O)[C@H](Cc2ccccc2)NC(=O)[C@H]2CN(c3ccccc3)C(=O)O2)cc1 [20a, (5R)—N-[(1S,2R)-1-Benzyl-2-hydroxy-3-[isobutyl[(4-methoxyphenyl)sulfonyl]amino]-propyl]-2-oxo-3-phenyloxazolidine-S-carboxamide] | 10.7
2 | COc1ccc(S(=O)(=O)N(CC(C)C)C[C@@H](O)[C@H](Cc2ccccc2)NC(=O)[C@@H]2CN(c3cccc(F)c3)C(=O)O2)cc1 [21b, (5S)—N-[(1S,2R)-1-Benzyl-2-hydroxy-3-[isobutyl[(4-methoxyphenyl)sulfonyl]amino]-propyl]-3-(3-fluorophenyl)-2-oxo-oxazolidine-S-carboxamide] | 0.08
3 | COc1ccc(S(=O)(=O)N(CC(C)C)C[C@@H](O)[C@H](Cc2ccccc2)NC(=O)[C@@H]2CN(c3cccc(C(F)(F)F)c3)C(=O)O2)cc1 [21d, (5S)—N-[(1S,2R)-1-Benzyl-2-hydroxy-3-[isobutyl[(4-methoxyphenyl)sulfonyl]amino]-propyl]-2-oxo-3-[(3-trifluoromethyl)phenyl]oxazolidine-S-carboxamide] | 0.006
4 | COc1ccc(S(=O)(=O)N(CC(C)C)C[C@@H](O)[C@H](Cc2ccccc2)NC(=O)[C@@H]2CN(c3cccc(OC)c3)C(=O)O2)cc1 [21g, (5S)—N-[(1S,2R)-1-Benzyl-2-hydroxy-3-[isobutyl[(4-methoxyphenyl)sulfonyl]-amino]propyl]-3-(3-methoxyphenyl)-2-oxo-oxazolidine-S-carboxamide] | 0.045
5 | CC(C)CN(C[C@@H](O)[C@H](Cc1ccccc1)NC(=O)[C@H]1CN(c2ccccc2)C(=O)O1)S(=O)(=O)c1ccc(N)cc1 [24a, (5R)—N-[(1S,2R)-3-[[(4-Aminophenyl)sulfonyl](isobutyl)amino]-1-benzyl-2-hydroxypropyl]-2-oxo-3-phenyloxazolidine-S-carboxamide] | 37.4
6 | CC(=O)c1cccc(N2C[C@@H](C(=O)N[C@@H](Cc3ccccc3)[C@H](O)CN(CC(C)C)S(=O)(=O)c3ccc(N)cc3)OC2=O)c1 [25e, (5S)-3-(3-Acetylphenyl)-N-[(1S,2R)-3-[[(4-aminophenyl)sulfonyl](isobutyl)amino]-1-benzyl-2-hydroxypropyl]-2-oxo-oxazolidine-S-carboxamide] | 0.032
7 | CC(=O)c1cccc(N2C[C@@H](C(=O)N[C@@H](Cc3ccccc3)[C@H](O)CN(CC(C)C)S(=O)(=O)c3ccc4c(c3)OCO4)OC2=O)c1 [26e, (5S)-3-(3-Acetylphenyl)-N-[(1S,2R)-3-[[(benzo-[1,3]-dioxole-5-sulfonyl)](isobutyl)amino]-1-benzyl-2-hydroxypropyl]-2-oxo-oxazolidine-S-carboxamide] | 0.006

Same assay, conditions: wild type HIV-1 protease (Q7K), FRET, in triplicate; read-out: Ki

Row | SMILES | Ki [nM]
8 | COc1ccc(S(=O)(=O)N(CC(C)C)C[C@@H](O)[C@H](Cc2ccccc2)NC(=O)[C@@H]2CN(c3ccccc3)C(=O)O2)cc1 [21a, (5S)—N-[(1S,2R)-1-Benzyl-2-hydroxy-3-[isobutyl[(4-methoxyphenyl)sulfonyl]amino]propyl]-2-oxo-3-phenyloxazolidine-S-carboxamide] | 0.1
9 | COc1ccc(S(=O)(=O)N(CC(C)C)C[C@@H](O)[C@H](Cc2ccccc2)NC(=O)[C@@H]2CN(c3ccc(F)c(F)c3)C(=O)O2)cc1 [21c, (5S)—N-[(1S,2R)-1-Benzyl-2-hydroxy-3-[isobutyl[(4-methoxyphenyl)sulfonyl]amino]-propyl]-3-(3,4-difluorophenyl)-2-oxo-oxazolidinone-S-carboxamide] | 0.066
10 | CC(C)CN(C[C@@H](O)[C@H](Cc1ccccc1)NC(=O)[C@@H]1CN(c2ccccc2)C(=O)O1)S(=O)(=O)c1ccc(N)cc1 [25a, (5S)—N-[(1S,2R)-3-[[(4-Aminophenyl)sulfonyl](isobutyl)amino]-1-benzyl-2-hydroxypropyl]-2-oxo-3-phenyloxazolidine-S-carboxamide] | 0.53
11 | CC(C)CN(C[C@@H](O)[C@H](Cc1ccccc1)NC(=O)[C@@H]1CN(c2cccc(C(F)(F)F)c2)C(=O)O1)S(=O)(=O)c1ccc(N)cc1 [25d, (5S)—N-[(1S,2R)-3-[[(4-Aminophenyl)sulfonyl](isobutyl)amino]-1-benzyl-2-hydroxypropyl]-2-oxo-3-[(3-trifluoromethyl)phenyl]oxazolidine-S-carboxamide] | 0.042
12 | CC(C)CN(C[C@@H](O)[C@H](Cc1ccccc1)NC(=O)[C@@H]1CN(c2cccc(C(F)(F)F)c2)C(=O)O1)S(=O)(=O)c1ccc2c(c1)OCO2 [26d, (5S)—N-[(1S,2R)-3-[[(Benzo-[1,3]-dioxole-S-sulfonyl)](isobutyl)amino]-1-benzyl-2-hydroxypropyl]-2-oxo-3-[(3-trifluoromethyl)phenyl]oxazolidine-S-carboxamide] | 0.016
13 | CC(=O)c1ccc(N2C[C@@H](C(=O)N[C@@H](Cc3ccccc3)[C@H](O)CN(CC(C)C)S(=O)(=O)c3ccc4c(c3)OCO4)OC2=O)cc1 [26f, (5S)-3-(4-Acetylphenyl)-N-[(1S,2R)-3-[[(benzo-[1,3]-dioxole-S-sulfonyl)](isobutyl)-amino]-1-benzyl-2-hydroxypropyl]-2-oxo-oxazolidine-S-carboxamide] | 0.016
14 | COc1ccc(S(=O)(=O)N(CC(C)C)C[C@@H](O)[C@H](Cc2ccccc2)NC(=O)[C@@H]2CN(c3cccc(F)c3)C(=O)O2)cc1F [27b, (5S)—N-[(1S,2R)-1-Benzyl-3-[[(3-fluoro-4-methoxyphenyl)sulfonyl](isobutyl)amino]-2-hydroxypropyl]-3-(3-fluorophenyl)-2-oxo-oxazolidine-S-carboxamide] | 0.07
15 | COc1ccc(S(=O)(=O)N(CC(C)C)C[C@@H](O)[C@H](Cc2ccccc2)NC(=O)[C@@H]2CN(c3ccc(F)c(F)c3)C(=O)O2)cc1F [27c, (5S)—N-[(1S,2R)-1-Benzyl-3-[[(3-fluoro-4-methoxyphenyl)sulfonyl](isobutyl)amino]-2-hydroxypropyl]-3-(3,4-difluorophenyl)-2-oxo-oxazolidine-S-carboxamide] | 0.343
16 | COc1ccc(S(=O)(=O)N(CC(C)C)C[C@@H](O)[C@H](Cc2ccccc2)NC(=O)[C@@H]2CN(c3cccc(C(F)(F)F)c3)C(=O)O2)cc1F [27d, (5S)—N-[(1S,2R)-1-Benzyl-3-[[(3-fluoro-4-methoxyphenyl)sulfonyl](isobutyl)amino]-2-hydroxypropyl]-2-oxo-3-[(3-trifluoromethyl)phenyl)oxazolidine-S-carboxamide] | 0.072
17 | COc1ccc(S(=O)(=O)N(CC(C)C)C[C@@H](O)[C@H](Cc2ccccc2)NC(=O)[C@@H]2CN(c3ccc(C(C)=O)cc3)C(=O)O2)cc1F [27f, (S)-3-(4-Acetylphenyl)-N-[(1S,2R)-1-Benzyl-3-[[(3-fluoro-4-methoxyphenyl)-sulfonyl](isobutyl)amino]-2-hydroxypropyl]-2-oxo-oxazolidine-S-carboxamide] | 0.08

Same assay, conditions: wild type HIV-1 protease, qualitative statement

Row | SMILES | inhibitory activity against wild type HIV-1 protease (in words)
18 | CC(C)CN(C[C@@H](O)[C@H](Cc1ccccc1)NC(=O)[C@@H]1CN(c2cccc(F)c2)C(=O)O1)S(=O)(=O)c1ccc(N)cc1 [25b, (5S)—N-[(1S,2R)-3-[[(4-Aminophenyl)sulfonyl](isobutyl)amino]-1-benzyl-2-hydroxypropyl]-3-(3-fluorophenyl)-2-oxo-oxazolidine-S-carboxamide] | relatively small improvement in activities compared to 25a
19 | CC(C)CN(C[C@@H](O)[C@H](Cc1ccccc1)NC(=O)[C@@H]1CN(c2ccc(F)c(F)c2)C(=O)O1)S(=O)(=O)c1ccc(N)cc1 [25c, (5S)—N-[(1S,2R)-3-[[(4-Aminophenyl)sulfonyl](isobutyl)amino]-1-benzyl-2-hydroxypropyl]-3-(3,4-difluorophenyl)-2-oxo-oxazolidine-S-carboxamide] | relatively small improvement in activities compared to 25a
20 | CC(=O)c1ccc(N2C[C@@H](C(=O)N[C@@H](Cc3ccccc3)[C@H](O)CN(CC(C)C)S(=O)(=O)c3ccc(N)cc3)OC2=O)cc1 [25f, (5S)-3-(4-Acetylphenyl)-N-[(1S,2R)-3-[[(4-aminophenyl)sulfonyl](isobutyl)amino]-1-benzyl-2-hydroxypropyl]-2-oxo-oxazolidine-S-carboxamide] | relatively small improvement in activities compared to 25a
21 | COc1cccc(S(=O)(=O)N(CC(C)C)C[C@@H](O)[C@H](Cc2ccccc2)NC(=O)[C@@H]2CN(c3ccccc3)C(=O)O2)c1 [29a, (5S)—N-[(1S,2R)-1-Benzyl-2-hydroxy-3-[isobutyl[(3-methoxyphenyl)sulfonyl]amino]-propyl]-2-oxo-3-phenyloxazolidine-S-carboxamide] | significant loss of protease inhibitory activity
22 | COc1cccc(S(=O)(=O)N(CC(C)C)C[C@@H](O)[C@H](Cc2ccccc2)NC(=O)[C@@H]2CN(c3ccc(C(C)=O)cc3)C(=O)O2)c1 [29f, (5S)-3-(4-Acetylphenyl)-N-[(1S,2R)-1-benzyl-2-hydroxy-3-[isobutyl[(3-methoxyphenyl)-sulfonyl]amino]propyl]-2-oxo-oxazolidine-S-carboxamide] | significant loss of protease inhibitory activity
